One assay addresses Substance-P receptor (Homo sapiens, UniProt P25103).
The target in a further assay is T1, Substance-K receptor (Homo sapiens, UniProt P21452).
T1 sequence (P21452 whole entry): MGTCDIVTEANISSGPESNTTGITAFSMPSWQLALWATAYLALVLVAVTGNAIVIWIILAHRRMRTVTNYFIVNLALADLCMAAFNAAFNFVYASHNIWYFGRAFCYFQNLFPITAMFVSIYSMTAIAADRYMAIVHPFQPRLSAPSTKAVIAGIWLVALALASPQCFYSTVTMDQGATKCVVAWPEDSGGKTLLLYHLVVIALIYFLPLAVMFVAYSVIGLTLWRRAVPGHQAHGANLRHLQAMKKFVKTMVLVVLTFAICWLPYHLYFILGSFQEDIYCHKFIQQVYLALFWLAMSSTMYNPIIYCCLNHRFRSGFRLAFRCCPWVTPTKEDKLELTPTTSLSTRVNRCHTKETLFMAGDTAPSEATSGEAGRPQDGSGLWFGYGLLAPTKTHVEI

The target in the next assay is T2, Neuromedin-K receptor (Homo sapiens, UniProt P29371).
T2 sequence (P29371 whole entry): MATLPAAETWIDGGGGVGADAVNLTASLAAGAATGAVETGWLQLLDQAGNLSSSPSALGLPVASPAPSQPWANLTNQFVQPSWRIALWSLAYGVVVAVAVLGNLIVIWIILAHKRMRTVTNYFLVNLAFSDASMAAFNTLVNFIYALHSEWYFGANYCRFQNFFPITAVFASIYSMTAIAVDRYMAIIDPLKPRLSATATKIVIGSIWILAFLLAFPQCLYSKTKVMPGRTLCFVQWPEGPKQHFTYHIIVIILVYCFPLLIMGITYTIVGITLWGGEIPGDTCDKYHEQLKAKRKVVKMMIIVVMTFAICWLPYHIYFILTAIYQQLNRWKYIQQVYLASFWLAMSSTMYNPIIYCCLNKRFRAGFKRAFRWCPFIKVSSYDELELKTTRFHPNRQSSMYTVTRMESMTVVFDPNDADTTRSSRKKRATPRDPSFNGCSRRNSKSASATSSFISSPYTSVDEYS

We go through 3 compounds from BindingDB's records for doi:10.1016/s0014-2999(02)02124-6 (Schering-Plough Research Institute, 2002).

Broadly, the pKi is −log10 of the Ki, conventionally taken in molar units. Read a high pKi as a small Ki.

pKi: −log10 of the molar value. Where only a bound is given, the exact number is not on record here.

Sequence of Substance-P receptor (P25103 whole entry): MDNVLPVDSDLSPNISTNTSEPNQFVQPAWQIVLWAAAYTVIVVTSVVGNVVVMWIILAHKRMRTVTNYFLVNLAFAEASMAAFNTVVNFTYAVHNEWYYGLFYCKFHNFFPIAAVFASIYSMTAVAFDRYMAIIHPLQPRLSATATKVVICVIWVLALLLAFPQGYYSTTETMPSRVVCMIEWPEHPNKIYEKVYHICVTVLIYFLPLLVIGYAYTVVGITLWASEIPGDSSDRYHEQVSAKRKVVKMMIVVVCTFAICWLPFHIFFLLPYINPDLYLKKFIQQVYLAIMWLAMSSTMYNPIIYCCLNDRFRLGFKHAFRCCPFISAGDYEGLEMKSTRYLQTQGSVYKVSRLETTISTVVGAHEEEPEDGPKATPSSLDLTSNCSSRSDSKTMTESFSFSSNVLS

`CNC(=O)CC1CCCN(C2CCN(CC[C@@H](/C(CN(C)C(=O)c3cc(Cl)cc(Cl)c3)=N/OC)c3ccc(Cl)c(Cl)c3)CC2)C1=O` (stereo partly drawn): the pKi was 8.89 at Substance-P receptor, 9.40 on Substance-K receptor and 9.52 at Neuromedin-K receptor.
Take `COc1ccccc1CN[C@H]1CCCN[C@H]1c1ccccc1` [(+/-)(2-Methoxy-benzyl)-(2-phenyl-piperidin-3-yl)-amine]: the pKi at Substance-K receptor and on Neuromedin-K receptor was under 5.00 in each case.
Turning to `CC(=O)NC1(c2ccccc2)CCN(CCC(CN(C)C(=O)c2ccccc2)c2ccc(Cl)c(Cl)c2)CC1` (stereo not drawn) [SR 48968], the negative logarithm of the Ki (pKi) on Substance-P receptor was 6.56; on Substance-K receptor, 9.40; on Neuromedin-K receptor it was 5.89.
